These results are taken from ChEMBL document CHEMBL1201862, “PubChem BioAssay data set” (2004).

Broadly, the EC50 is the concentration that produces a half-maximal response. As usually defined, the AC50 is the concentration at which the activity in the assay is half-maximal.

Experiment [1] addresses T1, Calpain-2 catalytic subunit (Sus scrofa, UniProt P43367).
T1 sequence (P43367 whole entry): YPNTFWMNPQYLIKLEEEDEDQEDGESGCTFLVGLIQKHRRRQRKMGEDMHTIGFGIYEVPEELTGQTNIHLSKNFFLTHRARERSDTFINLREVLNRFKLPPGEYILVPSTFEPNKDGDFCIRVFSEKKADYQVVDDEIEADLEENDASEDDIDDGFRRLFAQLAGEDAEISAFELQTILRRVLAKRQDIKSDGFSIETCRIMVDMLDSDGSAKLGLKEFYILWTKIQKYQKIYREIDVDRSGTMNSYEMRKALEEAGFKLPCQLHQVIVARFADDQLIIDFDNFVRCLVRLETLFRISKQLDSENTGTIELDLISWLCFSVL
The experiment in a line: pig calpain II inhibitor potency, dose response, biochemical, fluorogenic peptide substrate (AID 1420). It is filed as functional.

Experiment [2] deals with T2, Heat shock factor protein 1 (Mus musculus, UniProt P38532).
T2 sequence (P38532 whole entry): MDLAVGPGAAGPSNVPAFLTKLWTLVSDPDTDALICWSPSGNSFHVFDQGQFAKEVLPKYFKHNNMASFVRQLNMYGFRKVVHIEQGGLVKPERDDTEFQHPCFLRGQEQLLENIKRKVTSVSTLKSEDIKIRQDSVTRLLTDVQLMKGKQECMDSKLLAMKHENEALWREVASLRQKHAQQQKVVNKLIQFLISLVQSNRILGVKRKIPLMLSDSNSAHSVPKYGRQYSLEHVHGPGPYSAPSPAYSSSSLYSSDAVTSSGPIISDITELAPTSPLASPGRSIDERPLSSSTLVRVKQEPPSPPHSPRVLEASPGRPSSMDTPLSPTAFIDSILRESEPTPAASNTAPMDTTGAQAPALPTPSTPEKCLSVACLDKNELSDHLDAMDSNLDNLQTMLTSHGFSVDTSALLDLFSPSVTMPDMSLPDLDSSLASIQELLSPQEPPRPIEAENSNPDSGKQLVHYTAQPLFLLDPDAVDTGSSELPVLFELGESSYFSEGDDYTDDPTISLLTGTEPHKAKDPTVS
The experiment is described as follows: HSF1 potentiators in luciferase reporter cells, confirmation, cell-based, NIH3T3, luminescence, dose retest (AID 435004).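 Also: stress induced by proteasome inhibitor MG132 added 30 min after compound; luciferase reporter driven by HSF1 response element in NIH3T3 cells; actives raise luminescence as potentiators of the MG132 stress response.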 Format: functional.

For experiment [3], the target named is T3, Carboxy-terminal domain RNA polymerase II polypeptide A small phosphatase 1 (Homo sapiens, UniProt Q9GZU7).
T3 sequence (Q9GZU7 whole entry): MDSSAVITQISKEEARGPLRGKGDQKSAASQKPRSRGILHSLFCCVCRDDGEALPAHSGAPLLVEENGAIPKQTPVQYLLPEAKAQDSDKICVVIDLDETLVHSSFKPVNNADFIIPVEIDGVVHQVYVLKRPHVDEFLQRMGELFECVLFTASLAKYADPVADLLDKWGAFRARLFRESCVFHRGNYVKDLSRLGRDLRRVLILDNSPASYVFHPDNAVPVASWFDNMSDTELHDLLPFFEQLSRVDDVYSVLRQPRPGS
The experiment in a line: inhibitors of CTDSP1, concentration-response testing, biochemical assay, absorbance-based, actives from ultra-high-throughput screening (AID 540297). It is filed as functional.

In experiment [4] the target is T4, Polyadenylate-binding protein 1 (Homo sapiens, UniProt P11940). The experiment in a line: PABP1 MLLE–PAM2 binding inhibitor potency, dose response, biochemical, fluorescence polarization, FITC-PAM2 peptide (AID 602259). Format: functional. The following applies: read-out: IC50_Mean. A general note: Polarisation of emitted light reports the rotation of a fluorescent probe.
T4 sequence (P11940 whole entry): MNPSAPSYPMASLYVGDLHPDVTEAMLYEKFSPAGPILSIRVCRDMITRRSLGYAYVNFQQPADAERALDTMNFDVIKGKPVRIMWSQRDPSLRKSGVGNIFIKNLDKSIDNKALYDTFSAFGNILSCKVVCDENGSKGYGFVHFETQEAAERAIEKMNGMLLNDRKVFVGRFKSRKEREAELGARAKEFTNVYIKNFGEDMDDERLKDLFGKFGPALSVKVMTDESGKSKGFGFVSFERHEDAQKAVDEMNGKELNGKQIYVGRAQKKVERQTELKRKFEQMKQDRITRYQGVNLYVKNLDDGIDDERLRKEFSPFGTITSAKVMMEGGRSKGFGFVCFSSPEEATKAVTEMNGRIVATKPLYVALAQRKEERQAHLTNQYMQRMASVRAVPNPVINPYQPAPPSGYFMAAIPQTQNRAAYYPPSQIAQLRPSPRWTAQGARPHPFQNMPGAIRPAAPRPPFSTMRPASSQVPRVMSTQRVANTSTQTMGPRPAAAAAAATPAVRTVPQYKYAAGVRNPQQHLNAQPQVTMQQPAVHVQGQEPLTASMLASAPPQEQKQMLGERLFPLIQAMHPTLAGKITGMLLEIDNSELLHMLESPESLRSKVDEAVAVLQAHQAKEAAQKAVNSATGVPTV

Experiment [5] has as its target T4, Polyadenylate-binding protein 1. The experiment in a line: PABP1 MLLE–PAM2 interaction inhibitors, dose response, miRNA deadenylation inhibitor project, biochemical, fluorescence polarization, Cy5-PAM2 peptide, secondary (AID 602260). The following applies: read-out: IC50_Mean. Format: functional.
The nature of experiment [6]: cytotoxicity toward DRD oncogenic fibroblasts, dose response, cell-based, non-viral oncogenic, luminescence (AID 1934). Format: functional. Conditions: Homo sapiens.
The test system of experiment [7] is BJ. The experiment in a line: cytotoxicity toward BJ-TERT fibroblasts, dose response, cell-based, RAS-independent, luminescence (AID 1933). Format: functional. The following applies: Homo sapiens.
Experiment [8] relates to BJ. The experiment in a line: cells. The following applies: Homo sapiens. Format: functional, cell-based.
Experiment [9] has as its system BJ. The experiment in a line: cytotoxicity toward BJ-TERT-LT-ST fibroblasts, dose response, cell-based, RAS-independent, luminescence (AID 1935).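 Also: BJ fibroblasts immortalized with TERT plus LT and ST oncogenes.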 It is filed as functional. Conditions: Homo sapiens.
The nature of experiment [10]: C. albicans growth with fluconazole, confirmation, fluorescence, retest (AID 2467). Format: functional, cell-based.
Experiment [11] has as its target Cytochrome P450 3A4 (Homo sapiens, UniProt P08684).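 Also: CYP3A4 tested as one member of a cytochrome P450 panel screen.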
Experiment [12] is described as follows: inhibitors of clade B AD8 Env fusion, dose response, cell-based, cherry-pick (AID 652062).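 Also: luciferase signal from cell-cell fusion driven by HIV-1 clade B AD8 Env; potency is for inhibitors of fusion seen as a drop in luminescence.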 It is filed as functional.
Experiment [13] in a line: NIH-3T3 fibroblast cytotoxicity, dose response, cytotoxicity control, cell-based, fluorescence, Alamar Blue, secondary assay (AID 2327).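 Also: NIH-3T3 mouse fibroblasts cultured with fluconazole at 8 µg/mL.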 It is filed as functional. (In general: Resazurin is reduced to fluorescent resorufin, in cell work by metabolically active cells.)
The target in experiment [14] is Paired box protein Pax-8 (Homo sapiens, UniProt Q06710). The experiment is described as follows: inhibitors of PAX8-driven TPO luciferase reporter, dose response, RMG-I cells, cherry-pick (AID 687027).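 Also: luciferase reporter driven by Pax8 target thyroperoxidase promoter measured by SteadyGlo luminescence.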 Format: functional, cell-based. For orientation: A reporter such as luciferase makes a cellular process visible.
Paired box protein Pax-8, sequence (Q06710 whole entry): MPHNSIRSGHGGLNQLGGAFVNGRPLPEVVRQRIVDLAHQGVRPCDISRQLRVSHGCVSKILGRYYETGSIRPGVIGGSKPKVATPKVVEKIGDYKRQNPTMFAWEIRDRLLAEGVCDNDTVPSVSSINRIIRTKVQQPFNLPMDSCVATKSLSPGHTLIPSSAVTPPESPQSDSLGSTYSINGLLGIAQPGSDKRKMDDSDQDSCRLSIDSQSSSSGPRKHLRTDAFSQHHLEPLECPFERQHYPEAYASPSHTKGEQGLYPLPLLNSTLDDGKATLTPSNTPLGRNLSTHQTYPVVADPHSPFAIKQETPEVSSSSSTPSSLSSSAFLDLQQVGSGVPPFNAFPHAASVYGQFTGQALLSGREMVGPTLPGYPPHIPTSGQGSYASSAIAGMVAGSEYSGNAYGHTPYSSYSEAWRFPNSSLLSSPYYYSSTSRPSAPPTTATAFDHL
The target in experiment [15] is Cytochrome P450 2D6 (Homo sapiens, UniProt P10635).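 Also: CYP2D6 member of a cytochrome P450 panel assay.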
Cytochrome P450 2D6, sequence (P10635 whole entry): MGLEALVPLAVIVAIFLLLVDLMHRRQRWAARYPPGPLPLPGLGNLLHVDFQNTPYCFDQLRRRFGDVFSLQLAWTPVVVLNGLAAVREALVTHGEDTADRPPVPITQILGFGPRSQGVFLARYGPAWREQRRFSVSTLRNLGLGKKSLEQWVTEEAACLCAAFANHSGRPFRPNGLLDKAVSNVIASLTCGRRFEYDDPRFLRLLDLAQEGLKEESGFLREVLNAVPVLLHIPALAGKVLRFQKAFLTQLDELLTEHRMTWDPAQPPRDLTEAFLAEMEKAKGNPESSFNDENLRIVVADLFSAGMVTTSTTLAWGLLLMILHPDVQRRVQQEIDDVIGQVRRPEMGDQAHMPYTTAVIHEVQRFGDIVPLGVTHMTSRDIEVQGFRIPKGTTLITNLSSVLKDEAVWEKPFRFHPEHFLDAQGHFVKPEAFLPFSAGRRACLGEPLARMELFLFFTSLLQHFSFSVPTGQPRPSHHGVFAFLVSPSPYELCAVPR
Experiment [16] has as its target T5, Rac GTPase-activating protein 1 (Homo sapiens, UniProt Q9H0H5).
T5 sequence (Q9H0H5 whole entry): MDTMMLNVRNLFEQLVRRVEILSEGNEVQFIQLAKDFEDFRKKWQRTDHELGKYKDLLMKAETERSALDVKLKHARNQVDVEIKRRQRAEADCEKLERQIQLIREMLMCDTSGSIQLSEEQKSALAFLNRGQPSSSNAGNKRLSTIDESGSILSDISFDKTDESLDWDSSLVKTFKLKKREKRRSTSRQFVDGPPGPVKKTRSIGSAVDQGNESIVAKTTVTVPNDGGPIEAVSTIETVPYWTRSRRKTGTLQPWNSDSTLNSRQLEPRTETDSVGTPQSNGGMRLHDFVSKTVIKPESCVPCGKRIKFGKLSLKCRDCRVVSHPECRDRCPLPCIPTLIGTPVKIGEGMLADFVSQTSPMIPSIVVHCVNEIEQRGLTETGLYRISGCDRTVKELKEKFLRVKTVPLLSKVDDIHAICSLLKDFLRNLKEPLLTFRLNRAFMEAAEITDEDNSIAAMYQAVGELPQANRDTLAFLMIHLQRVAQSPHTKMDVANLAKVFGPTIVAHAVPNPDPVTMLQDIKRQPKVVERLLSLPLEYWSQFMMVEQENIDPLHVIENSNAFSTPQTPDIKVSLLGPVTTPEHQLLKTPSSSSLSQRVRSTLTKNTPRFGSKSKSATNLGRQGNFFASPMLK
The experiment is described as follows: MgcRacGAP GTPase-activating activity inhibitors, confirmation, biochemical, ADP Hunter fluorescence, primary and confirmatory (AID 624330). It is filed as functional.

A short description of experiment [17]: Luminescence Cell-Based Dose Response HTS to Identify Activators of Luciferase Translation or Activity in H4 […] Cells. [Related pubchem assays: 1829 (Project Summary), 1814 (Primary HTS)]. It is filed as functional.

Activity calls are given as the source filed them.

Cytochrome P450 3A4, sequence (P08684 whole entry, the tested form may be a part): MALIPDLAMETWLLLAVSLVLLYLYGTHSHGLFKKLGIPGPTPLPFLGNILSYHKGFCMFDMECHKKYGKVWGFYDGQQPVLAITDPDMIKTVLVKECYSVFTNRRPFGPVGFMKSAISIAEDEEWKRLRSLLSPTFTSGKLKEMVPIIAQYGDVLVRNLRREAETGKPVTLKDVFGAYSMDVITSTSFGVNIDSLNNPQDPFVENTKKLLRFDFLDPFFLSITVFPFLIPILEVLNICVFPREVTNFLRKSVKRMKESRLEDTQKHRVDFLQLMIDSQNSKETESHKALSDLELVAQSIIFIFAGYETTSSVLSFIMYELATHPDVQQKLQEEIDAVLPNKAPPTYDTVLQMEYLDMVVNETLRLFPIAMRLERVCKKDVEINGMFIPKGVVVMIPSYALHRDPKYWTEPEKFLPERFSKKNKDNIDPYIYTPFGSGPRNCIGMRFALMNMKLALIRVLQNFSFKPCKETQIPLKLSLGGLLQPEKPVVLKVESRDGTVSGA

Turning to `Cc1ccc(NC2OC(CO)C(O)C2O)cc1[N+](=O)[O-]` (configuration not stated), the IC50 in experiment [1] was > 50 µM (not active). In experiment [2], the EC50 was > 260 µM (inactive).

For the compound `COc1cc(CNc2nc(C)c([N+](=O)[O-])c(C)c2C#N)cc(OC)c1`, in experiment [1], the IC50 is reported as 1.63 µM (not active).

For `O=C(CCS(=O)(=O)c1ccc(Br)cc1)NC1CCCC1`, the IC50 in experiment [3] is 9.44 µM (active).

For `CCCCOC(=O)c1ccc(NC(=O)c2c(Cl)ccc(Cl)c2OC)cc1`, in experiment [1], the IC50 was 10.8 µM (not active).

For `CCOC(=O)c1c(-c2ccc(C)o2)csc1NC(=S)NC(=O)c1ccc(F)cc1`, the IC50 in experiment [4] and in experiment [5] was > 66 µM (inactive) in each case.

On to `CC[N+]1(C)CC2CCC(C)(C1)C2(C)C` (configuration not stated), for which the IC50 in experiment [3] is 27.8 µM (active).

With `CC(=O)/C(C#N)=C1\NC(=O)C(Cc2cc(Cl)ccc2Cl)S1` (configuration not stated), the EC50 was 76.8 µM (active) in experiment [6], > 150 µM (not active) in experiment [7], 61.2 µM (active) in experiment [8] and > 150 µM (not active) in [9].

For the compound `O=C(N/C(=C\c1ccco1)C(=O)N1CCCC1CO)c1ccccc1` (configuration not stated), the IC50 in experiment [4] and in experiment [5] was > 66 µM (inactive) in each case.

Take `CCCCC1=CC2=C(c3ccco3)C(=O)C(C)(OC(=O)c3ccc(OC)cc3)C(=O)C2=CN1c1ccc(OC)cc1` (configuration not stated): the 50% effective concentration (EC50) is > 150 µM (not active) in experiment [6], 47.1 µM (active) in experiment [7], > 150 µM (not active) in [8] and > 150 µM (inconclusive) in experiment [9].

Turning to `O=C(CSc1ccc(-c2cccnc2)nn1)c1ccc([N+](=O)[O-])cc1`, the IC50 in experiment [4] and in experiment [5] was > 66 µM (inactive) throughout.

On to `CCCCC(=O)OCC(=O)c1[nH]c(C)c(C(=O)OCC)c1C`, for which the EC50 in experiment [2] is > 260 µM (inactive).

As for `C=CC[n+]1c(-c2ccc(C)cc2)csc1NNC(=O)Nc1ccccc1`, the 50% effective concentration (EC50) in [10] was 1.27 µM (active); in [13], > 150 µM (inconclusive). The AC50 was 3.55 µM (inconclusive) in experiment [11] and 9.27 µM (active) in experiment [12].

For `Cc1noc(/C=C/c2ccco2)c1S(=O)(=O)N1CCC(C(=O)NC(C)c2ccccc2)CC1` (configuration not stated), in experiment [14], the AC50 was 0.931 µM (active).

Take `COc1cccc(OC)c1OCCCN1CCOCC1`: the AC50 in experiment [15] was 39.8 µM (inconclusive). In addition, the IC50 in [16] is 162 µM (active).

For the compound `CC(=O)c1ccc(NC(=O)C2CCCNC2=O)cc1` (configuration not stated), the IC50 in [4] and in [5] was > 66 µM (inactive) in each case.

`O=C(CSc1nnc(Nc2ccccc2F)s1)NC(=O)CN1CCCC1=O`: the IC50 in experiment [3] was 5.43 µM (active).

For `Cc1cccc(N=Nc2c(O)nc(O)c(C#N)c2C)c1`, the EC50 in experiment [2] is 258 µM (active).

As to `Cc1noc(C)c1COc1ccc(C(=O)OCc2nnc(-c3ccc(Cl)cc3)o2)cc1`, in experiment [1], the IC50 is reported as 4.47 µM (not active).

Take `COc1ccc(CCNCc2ccc(Br)cc2)cc1OC`: in [2], the EC50 is > 260 µM (inactive).

On to `COc1ccc(N2CCN(C(=O)Nc3ccc(S(=O)(=O)N(C)C)cc3)CC2)cc1`, for which the IC50 in [1] is < 0.4 µM (not active).

Regarding `O=C(COC(=O)c1ccccc1O)NCc1ccco1`, the IC50 in experiment [3] was 9.53 µM (active).

Turning to `O=C(CN1C(=O)NC(Cc2ccccc2)C1=O)Nc1ccccc1` (configuration not stated), in [1], the IC50 is 17.4 µM (not active).

For `COc1ccnc(Oc2ccc3ccccc3c2)c1C#N`, the IC50 in experiment [1] was > 50 µM (not active).

On to `COc1cccc(/C=C2\SC(=O)N(CC(=O)NC3C=CS(=O)(=O)C3)C2=O)c1` (configuration not stated), for which the IC50 is 56.6 µM (inactive) in experiment [4] and > 66 µM (inactive) in [5].

As to `COc1ccc(NC(S)=NCCc2c(C)[nH]c3ccc(OC)cc23)cc1`, the IC50 in [1] was 30.1 µM (not active).

`O=C(Nc1c(C(=O)c2ccccc2)oc2ccccc12)c1cc(-c2ccccc2O)n[nH]1`: the EC50 in [2] was > 260 µM (inactive).

On to `CN(NC(=O)c1ccccc1F)c1nc(C(F)(F)F)nc2ccccc12`, for which the EC50 in experiment [6] was 0.628 µM (active); in [7] it was 0.667 µM (inconclusive); in experiment [8], 0.813 µM (active); in experiment [9], 0.428 µM (inconclusive).

For `Cc1ccc(CCC(=O)Nc2ncc(Cc3cccc(Cl)c3Cl)s2)o1`, the EC50 in experiment [6] is 0.381 µM (active); in [7], 0.311 µM (active); in [8] it was 0.668 µM (active); in experiment [9], 0.216 µM (inconclusive).

Turning to `Cc1ccc(-n2c(C)cc(C(=O)COC(=O)c3c(C)noc3C)c2C)cc1`, the EC50 in experiment [17] was 413 nM (active).

For the compound `Cc1noc(C)c1COC(=O)C(c1ccccc1)c1ccccc1`, the IC50 in experiment [1] is 11.3 µM (not active).

Take `O=C(Nc1ccc2c(c1)C(=O)NC2=O)c1cccc(C(F)(F)F)c1`: the IC50 in [3] is 9.33 µM (active).

With `CC(=O)CC(=O)Nc1ccc(Nc2ccccc2)cc1`, the IC50 in experiment [16] is 178 µM (active).

`C[C@H](CO)N1C[C@H](C)[C@H](CN(C)Cc2ccc3c(c2)OCO3)Oc2ccc(NC(=O)Nc3cccc4ccccc34)cc2C1=O`: the AC50 in experiment [14] is 26.5 µM (active).

Take `O=C(N/N=C/c1ccncc1)c1ccc(NC(=O)c2cccc(Cl)c2)cc1`: the IC50 in [3] is 13.9 µM (active).

`CCOc1cc(/C=N/NC(=O)C(OC)c2ccccc2)ccc1O` (configuration not stated): in experiment [16], the IC50 was 54.9 µM (active).
